According to patent US20100210617A1, “Aryl-Alkylamines And Heteroaryl-Alkylamines As Protein Kinase Inhibitors” (ASTEX THERAPEUTICS LIMITED, priority 2005, published 2010):
Where a name gives a salt, the structure may show the parent alone.

Assays:
[1] = target: T1, protein kinase B (PKB), fusion protein PKB-PIF (Homo sapiens, UniProt P31751); assay: Measurement of PKB kinase inhibitory activity (IC50); assay type: biochemical; details: 0.6 nM enzyme, 30 μM ATP/γ33P-ATP, 25 μM AKTide-2T substrate, 20 minutes; read-out: IC50, concentration required to inhibit 50% of the PKB activity
T1 construct: made in house
Experimental: The inhibition of protein kinase B (PKB) activity by compounds can be determined essentially as described by Andjelkovic et al. (Mol. Cell. Biol. 19, 5061-5072 (1999)) but using a fusion protein described as PKB-PIF and described in full by Yang et al (Nature Structural Biology 9, 940-944 (2002)). […] A final concentration of 0.6 nM enzyme is used in a buffer that includes 20 mM MOPS pH 7.2, 30 μM ATP/γ^33P-ATP and 25 μM substrate. Compounds are added in DMSO solution to a final DMSO concentration of 2.5%. The reaction is allowed to proceed for 20 minutes before addition of excess orthophosphoric acid to quench activity. The reaction mixture is transferred to a phosphocellulose filter plate where the peptide binds and the unused ATP is washed away. After washing, scintillant is added and the incorporated activity measured by scintillation counting.
The % inhibition of the PKB activity is calculated and plotted in order to determine the concentration of test compound required to inhibit 50% of the PKB activity (IC50).

PKA catalytic domain = target: T2, PKA catalytic domain (Homo sapiens, UniProt P17612); assay: Measurement of PKA kinase inhibitory activity (IC50); assay type: biochemical; details: 1 nM enzyme, 40 μM ATP/γ33P-ATP, 5 μM peptide substrate […], 20 minutes; read-out: IC50, concentration required to inhibit 50% of the PKA activity
T2 construct: using the PKA catalytic domain from Upstate Biotechnology (#14-440); purchased Upstate Biotechnology 14-440
Experimental: A final concentration of 1 nM enzyme is used in a buffer that includes 20 mM MOPS pH 7.2, 40 μM ATP/γ^33P-ATP and 5 μM substrate. Compounds are added in dimethylsulphoxide (DMSO) solution to a final DMSO concentration of 2.5%. The reaction is allowed to proceed for 20 minutes before addition of excess orthophosphoric acid to quench activity. Unincorporated γ^33P-ATP is then separated from phosphorylated proteins on a Millipore MAPH filter plate. The plates are washed, scintillant is added and the plates are then subjected to counting on a Packard Topcount.

T1 sequence (P31751 with tags, fused parts or gaps limits assumed): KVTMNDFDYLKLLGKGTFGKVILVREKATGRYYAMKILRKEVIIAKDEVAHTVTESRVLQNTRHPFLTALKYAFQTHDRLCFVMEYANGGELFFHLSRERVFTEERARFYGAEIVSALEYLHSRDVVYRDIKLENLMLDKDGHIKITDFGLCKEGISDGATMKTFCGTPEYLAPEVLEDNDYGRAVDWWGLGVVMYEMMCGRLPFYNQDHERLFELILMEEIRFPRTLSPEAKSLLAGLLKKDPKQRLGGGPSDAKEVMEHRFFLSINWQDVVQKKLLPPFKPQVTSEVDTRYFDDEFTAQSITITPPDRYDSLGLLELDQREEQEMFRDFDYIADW

Structure (SMILES) | IC50 [1] [nM] | IC50 (PKA catalytic domain) [nM]
NCCC(O)(c1ccc(Cl)cc1)c1ccc(-c2cn[nH]c2)cc1 (racemic) [Example 92, 3-Amino-1-(4-chloro-phenyl)-1-[4-(1H-pyrazol-4-yl)-phenyl]-propan-1-ol] | < 100 | < 100
NCCC(c1ccc(-c2cn[nH]c2)cc1)c1ccc(Cl)c(F)c1 (stereo not shown) [Example 1, 3-(4-Chloro-3-fluoro-phenyl)-3-[4-(1H-pyrazol-4-yl)-phenyl]-propylamine] | < 100 | < 100
NCC[C@H](c1ccc(-c2cn[nH]c2)cc1)c1ccc(Cl)c(Cl)c1 [Example 2, (R)-3-(3,4-Dichloro-phenyl)-3-[4-(1H-pyrazol-4-yl)-phenyl]-propylamine] | < 100 | –
COc1cccc(OCC2(c3ccc(-c4c[nH]nc4C)cc3)CCNCC2)c1 [Example 77, 4-(3-Methoxy-phenoxymethyl)-4-[4-(3-methyl-1H-pyrazol-4-yl)-phenyl]-piperidine] | < 1000 | < 1000
Cc1n[nH]cc1-c1ccc(C(O)(CN)c2ccc(Cl)cc2)cc1 (stereo not shown) [Example 79, 2-Amino-1-(4-chloro-phenyl)-1-[4-(3-methyl-1H-pyrazol-4-yl)-phenyl]-ethanol] | < 100 | < 100
CCc1n[nH]cc1-c1ccc(C(O)(CN)c2ccc(Cl)cc2)cc1 (stereo not shown) [Example 80, 2-Amino-1-(4-chloro-phenyl)-1-[4-(3-ethyl-1H-pyrazol-4-yl)-phenyl]-ethanol] | < 100 | < 100
Clc1ccc(C2(c3ccc(-c4cn[nH]c4)cc3)CCNC2)cc1 (stereo not shown) [Example 81, 4-{4-[3-(4-Chloro-phenyl)-pyrrolidin-3-yl]-phenyl}-1H-pyrazole formate] | < 1000 | < 1000
COc1ccc(C2(c3ccc(-c4cn[nH]c4)cc3)CNC2)cc1 [Example 82, 4-{-4-[3-(4-Methoxy-phenyl)-azetidin-3-yl]-phenyl}-1H-pyrazole formate] | < 1000 | < 1000
c1cc(C2(c3ccc4c(c3)OCCO4)CCNCC2)ccc1-c1cn[nH]c1 [Example 83, 4-(2,3-Dihydro-benzo[1,4]dioxin-6-yl)-4-[4-(1H-pyrazol-4-yl)-phenyl]-piperidine] | < 100 | < 100
Clc1cccc(C2(c3ccc(-c4cn[nH]c4)cc3)CCNCC2)c1 [Example 84, 4-(3-Chloro-phenyl)-4-[4-(1H-pyrazol-4-yl)-phenyl]-piperidine] | < 100 | < 100
COc1ccc(-c2cccc(C3(c4ccc(-c5cn[nH]c5)cc4)CCNCC3)c2)cc1 [Example 85, 4-(4′-Methoxy-biphenyl-3-yl)-4-[4-(1H-pyrazol-4-yl)-phenyl]-piperidine dihydrochloride] | < 1000 | < 100
COc1ccc(C2(c3ccc(-c4c[nH]nc4C)cc3)CCNCC2)cc1 [Example 86, 4-(4-Methoxy-phenyl)-4-[4-(3-methyl-1H-pyrazol-4-yl)-phenyl]piperidine dihydrochloride] | < 100 | < 100
CCc1[nH]ncc1-c1ccc(C2(c3ccc(Cl)cc3)CCNCC2)cc1 [Example 87, 4-(4-Chloro-phenyl)-4-[4-(5-ethyl-1H-pyrazol-4-yl)-phenyl]-piperidine] | < 1000 | < 1000
Clc1ccc(C2(c3ccc(-c4cn[nH]c4C4CC4)cc3)CCNCC2)cc1 [Example 88, 4-(4-Chloro-phenyl)-4-[4-(5-cyclopropyl-1H-pyrazol-4-yl)-phenyl]-piperidine] | < 100 | < 1000
CN(C)c1cccc(C2(c3ccc(-c4cn[nH]c4)cc3)CCNCC2)c1 [Example 89, Dimethyl-(3-{4-[4-(1H-pyrazol-4-yl)-phenyl]-piperidin-4-yl}-phenyl)-amine] | < 1000 | < 1000
COc1ccc(C2(c3ccc(-c4cn[nH]c4)cc3)CCNCC2)cn1 [Example 90, 4-(2-Methoxy-5-pyridin-yl)-4-[4-(1H-pyrazol-4-yl)-phenyl]-piperidine] | < 1000 | < 100
NCC(O)(c1ccc(Cl)cc1)c1ccc(-c2cn[nH]c2)cn1 (stereo not shown) [Example 91, 2-Amino-1-(4-chloro-phenyl)-[5-(1H-pyrazol-4-yl)-pyridin-2-yl]-ethanol hydrochloride] | < 1000 | < 100
Cc1n[nH]cc1-c1ccc(C2(COc3cccc(-c4nc5ccccc5o4)c3)CCNCC2)cc1 [Example 93, 2-(3-{4-[4-(3-Methyl-1H-pyrazol-4-yl)-phenyl]-piperidin-4-ylmethoxy}-phenyl)-benzooxazole] | < 100 | –
NCCC(O)(c1ccc(Cl)cc1)c1ccc(-c2cn[nH]c2)cc1F (stereo not shown) [Example 94, 3-Amino-1-(4-chlorophenyl)-1-[2-fluoro-4-(1H-pyrazol-4-yl)-phenyl]-propan-1-ol-acetic acid salt] | < 100 | < 100
NCCC(O)(c1ccc(-c2cn[nH]c2)cc1)c1ccc(Cl)c(F)c1 (stereo not shown) [Example 95, 3-Amino-1-(4-chloro-3-fluoro-phenyl)-1-[4-(1H-pyrazol-4-yl)-phenyl]-propan-1-ol] | < 100 | < 100
NCCC(O)(c1ccc(-c2cn[nH]c2)cc1)c1ccc(Cl)c(Cl)c1 (stereo not shown) [Example 96, 3-Amino-1-(3,4,-dichlorophenyl)-1-[4-(1H-pyrazol-4-yl)-phenyl]-propan-1-ol] | < 100 | < 100
NCC[C@@](O)(c1ccc(Cl)cc1)c1ccc(-c2cn[nH]c2)cc1 [Example 99A, (S)-3-Amino-1-(4-chloro-phenyl)-1-[4-(1H-pyrazol-4-yl)-phenyl]-propan-1-ol] | < 100 | < 100
NCC[C@](O)(c1ccc(Cl)cc1)c1ccc(-c2cn[nH]c2)cc1 [Example 99B, (R)-3-Amino-1-(4-chloro-phenyl)-1-[4-(1H-pyrazol-4-yl)-phenyl]-propan-1-ol] | < 100 | –
